{
  "source": "patent US20240041823A1",
  "about": "“USE OF MYCOLACTONE (MLN) AND DERIVATIVES THEREOF FOR TREATMENT OF MICROBIAL INFECTIONS” (priority 2022, published 2024)",
  "system": "SARS-CoV-2 variants of concern (VOC)",
  "format": "cell-based",
  "conditions": "plaque assay",
  "data": [
    {"substance": "mycolactone [MLN]", "values": [
      {"measurement": "IC50 fold lower than Remdesivir", "value": "9-18 fold"}
    ]}
  ]
}
